Data: publication PMC6199744, “Development of Chemical Proteomics for the Folateome and Analysis of the Kinetoplastid Folateome” (ACS Infectious Diseases, 2018)
Several values for one entry are separate records, joined by “and”; a condition that tells them apart may be missing. Identical values can stand only once. Like-named read-outs stand apart in the source and are kept apart here.

System: T. brucei lysate proteins
Format: binding, Trypanosoma brucei

CCCCCCOc1cccc(Cc2cnc(N)nc2N)c1 [compound 2]
fold change - vehicle control: 1 and 0.55 and 0.88 and 0.98 and 0.99
fold change - vehicle control (protein RHS6A (CZT00028360.1)): 0.94
fold change - vehicle control (protein TB09.160.1250 HY[…], CONSERVED): 0.96
fold change - vehicle control (protein TB09.160.3670 RIBOSOMAL PROTEIN S6, PUTATIVE): 0.84
fold change - vehicle control (protein TB09.211.2630 60S RIBOSOMAL PROTEIN L23, PUTATIVE): 1.12
fold change - vehicle control (protein TB09.211.4513 KIN[…] PROTEIN KMP-11): 0.9
fold change - vehicle control (protein TB11.V4.0005 RIBONUCLEOSIDE-DIPHOSPHATE REDUCTASE SMALL CHAIN): 0.86
fold change - vehicle control (protein TB11.01.0870 R[…] A, 51KDA SUBUNIT, PUTATIVE): 1.05
fold change - vehicle control (protein TB11.01.2560 40S RIBOSOMAL PROTEIN SA, PUTATIVE): 1.05
fold change - vehicle control (protein TB11.01.4880 HY[…], CONSERVED): 0.89
fold change - vehicle control (protein TB11.01.7090 HY[…], CONSERVED): 0.9
fold change - vehicle control (protein TB11.02.2510 GUANINE NUCLEOTIDE-BINDING BETA SUBUNIT-LIKE PROTEIN): 0.96
fold change - vehicle control (protein TB11.02.4170 40S RIBOSOMAL PROTEIN S5, PUTATIVE): 1.39
fold change - vehicle control (protein TB11.03.0250 C[…]): 1.72
fold change - vehicle control (protein TB11.46.0009 HY[…], CONSERVED): 1.02
fold change - vehicle control (protein TB427TMP.01.0620 HY[…], CONSERVED): 0.96
fold change - vehicle control (protein TB427TMP.01.1475 40S RIBOSOMAL PROTEIN S27, PUTATIVE): 1.03
fold change - vehicle control (protein TB427TMP.01.4280 HY[…], CONSERVED): 0.85
fold change - vehicle control (protein TB427TMP.01.4650 HY[…], CONSERVED): 1.21
fold change - vehicle control (protein TB427TMP.01.4810 HY[…], CONSERVED): 0.93
fold change - vehicle control (protein TB427TMP.01.5680 HY[…], CONSERVED): 0.97
fold change - vehicle control (protein TB427TMP.01.8390 HY[…], CONSERVED): 0.8
fold change - vehicle control (protein TB427TMP.02.0230 HY[…], CONSERVED): 1.22
fold change - vehicle control (protein TB427TMP.02.0460 NUCLEOPORIN): 0.88
fold change - vehicle control (protein TB427TMP.02.1106 NUCLEOBASE/NUCLEOSIDE TRANSPORTER 8 1): 1.35
fold change - vehicle control (protein TB427TMP.160.2050 ENDO-BETA-N-ACETYLGLUCOSAMINIDASE, PUTATIVE): 0.89
fold change - vehicle control (protein TB427TMP.160.4310 GLUTAMATE DEHYDROGENASE): 0.49
fold change - vehicle control (protein TB427TMP.160.4450 40S RIBOSOMAL PROTEIN S3, PUTATIVE): 1.06
fold change - vehicle control (protein TB427TMP.160.4630 HY[…], CONSERVED): 0.91
fold change - vehicle control (protein TB427TMP.160.5200 HY[…], CONSERVED): 0.86
fold change - vehicle control (protein TB427TMP.160.5670 HY[…], CONSERVED): 0.81
fold change - vehicle control (protein TB427TMP.211.0930 POLYADENYLATE-BINDING PROTEIN 1): 1.27
fold change - vehicle control (protein TB427TMP.211.1750 MIT[…] PROTEIN, PUTATIVE): 0.97
fold change - vehicle control (protein TB427TMP.211.3510 ATP-DEPENDENT DEAD/H RNA HELICASE, PUTATIVE): 0.96
fold change - vehicle control (protein TB427TMP.211.4540 RNA-BINDING PROTEIN, PUTATIVE): 0.6
fold change - vehicle control (protein TB427TMP.244.2840 HY[…], CONSERVED): 1
fold change - vehicle control (protein TB427.01.1240 CYTIDINE TR[…], PUTATIVE): 0.8
fold change - vehicle control (protein TB427.01.2570 COATOMER BETA SUBUNIT): 0.82
fold change - vehicle control (protein TB427.01.3910 HY[…], CONSERVED): 0.61
fold change - vehicle control (protein TB427.02.450 RETRO[…] SPOT (RHS) PROTEIN, PUTATIVE): 0.84
fold change - vehicle control (protein TB427.04.3350 HY[…], CONSERVED): 1.08
fold change - vehicle control (protein TB427.04.3890 ATP-DEPENDENT RNA HELICASE, PUTATIVE): 0.83
fold change - vehicle control (protein TB427.04.4870 AMINO ACID TRANSPORTER, PUTATIVE): 1.02
fold change - vehicle control (protein TB427.04.750 50S RIBOSOMAL PROTEIN L7AE, PUTATIVE): 0.95
fold change - vehicle control (protein TB427.04.960 HY[…], CONSERVED): 0.72
fold change - vehicle control (protein TB427.05.1490 HY[…], CONSERVED): 0.95
fold change - vehicle control (protein TB427.05.1780 HY[…], CONSERVED): 0.73
fold change - vehicle control (protein TB427.05.3030 INTR[…] PROTEIN IFT122, PUTATIVE): 0.96
fold change - vehicle control (protein TB427.06.3110 PROTEIN KINASE, PUTATIVE (CRK11)): 0.94
fold change - vehicle control (protein TB427.06.5110 DAMAGE-SPECIFIC DNA BINDING PROTEIN, PUTATIVE): 0.9
fold change - vehicle control (protein TB427.07.2670 HY[…], CONSERVED): 0.98
fold change - vehicle control (protein TB427.07.3040 HY[…], CONSERVED): 0.96
fold change - vehicle control (protein TB427.07.3530 HY[…], CONSERVED): 0.91
fold change - vehicle control (protein TB427.07.4970 GLUTAMINE SYNTHETASE, PUTATIVE): 0.92
fold change - vehicle control (protein TB427.07.5560 GLUCOSAMINE-FRUCTOSE-6-PHOSPHATE AMINOTRANSFERASE, PUTATIVE): 0.87
fold change - vehicle control (protein TB427.07.5890 HY[…], CONSERVED): 0.8
fold change - vehicle control (protein TB427.07.7070 HY[…], CONSERVED): 0.79
fold change - vehicle control (protein TB427.07.7460 HY[…], CONSERVED): 0.98
fold change - vehicle control (protein TB427.08.1500 HY[…], CONSERVED): 0.94
fold change - vehicle control (protein TB427.08.1840 HY[…], CONSERVED): 0.7
fold change - vehicle control (protein TB427.08.1960 HY[…], CONSERVED): 0.83
fold change - vehicle control (protein TB427.08.2080 HY[…], CONSERVED): 0.75
fold change - vehicle control (protein TB427.08.3750 NUCLEOLAR PROTEIN, PUTATIVE): 1.04
fold change - vehicle control (protein TB427.08.6390 LYSOPHOSPHOLIPASE, PUTATIVE): 0.97
fold change - vehicle control (protein TB427.10.10610 PROTEIN TYROSINE PHOSPHATASE, PUTATIVE): 0.94
fold change - vehicle control (protein TB427.10.1100 60S RIBOSOMAL PROTEIN L9, PUTATIVE): 1.08
fold change - vehicle control (protein TB427.10.12740): 0.97
fold change - vehicle control (protein TB427.10.15720 […]-ATP-ASE SUBUNIT 9): 0.81
fold change - vehicle control (protein TB427.10.2440 METACASPASE MCA4): 0.88
fold change - vehicle control (protein TB427.10.2900 IMPORTIN BETA-1 SUBUNIT, PUTATIVE): 0.94
fold change - vehicle control (protein TB427.10.3470 HY[…], CONSERVED): 0.79
fold change - vehicle control (protein TB427.10.4110 60S RIBOSOMAL PROTEIN L30): 0.93
fold change - vehicle control (protein TB427.10.4610 […]-MANNOSE SYNTHASE, PUTATIVE): 0.93
fold change - vehicle control (protein TB427.10.5250 HY[…], CONSERVED): 0.89
fold change - vehicle control (protein TB427.10.5840 T[…] 1-BETA, PUTATIVE): 0.85
fold change - vehicle control (protein TB427.10.7410 SUCCINYL-COA LIGASE GDP-FORMING] BETA-CHAIN, PUTATIVE): 0.76
fold change - vehicle control (protein TB927.10.12960 RAS-RELATED PROTEIN RAB-5): 1.03
fold change - vehicle control (protein TB927.10.14800 PROTEIN KINASE, PUTATIVE): 1.13
fold change - vehicle control (protein TB927.10.2980 […]-ATPASE SUBUNIT 11): 1.09
fold change - vehicle control (protein TB927.10.3660 ASPARTATE AMINOTRANSFERASE): 1.09
fold change - vehicle control (protein TB927.10.4570 […] 2): 0.79
fold change - vehicle control (protein TB927.10.5140 PROTEIN KINASE, PUTATIVE): 0.91
fold change - vehicle control (protein TB927.10.6510 CHAPERONIN HSP60, MIT[…]): 0.96
fold change - vehicle control (protein TB927.3.1840 3-OXO-5-ALPHA-STEROID 4-DEHYDROGENASE, PUTATIVE): 1.16
fold change - vehicle control (protein TB927.3.3780 TRYPAREDOXIN): 0.92
fold change - vehicle control (protein TB927.3.740 HY[…], CONSERVED): 0.95
fold change - vehicle control (protein TB927.4.2740 HY[…], CONSERVED): 0.85
fold change - vehicle control (protein TB927.4.3590 T[…] 1-BETA, PUTATIVE): 0.81
fold change - vehicle control (protein TB927.6.4320 HY[…], CONSERVED): 0.98
fold change - vehicle control (protein TB927.7.2550 […] SUBUNIT 5): 0.92
fold change - vehicle control (protein TB927.7.2980 HY[…], CONSERVED): 0.88
fold change - vehicle control (protein TB927.7.5340 HY[…], CONSERVED): 1.48
fold change - vehicle control (protein TB927.7.7430 ATP SYNTHASE ALPHA CHAIN, MIT[…]): 0.92
fold change - vehicle control (protein TB927.8.1990 PEROXIDOXIN): 1.04
fold change - vehicle control (protein TB927.8.4720 AMINO ACID TRANSPORTER, PUTATIVE): 1.06
